# Values quoted from earlier work in US10945992B1, “Dosage forms of rofecoxib and related methods” (Tremeau Pharmaceuticals, Inc., priority 2019, dated 2021).
# Assays:
# patients with HA = conditions: six weeks of Part 1; P<0.001; cited from earlier work
# [1] = cited from earlier work; for incidence of gastrointestinal (GI) ulcers visualized at endoscopy compared to certain non-selective NSAIDs: FDA 2005; for risk of serious adverse cardiovascular events compared to placebo: long-term controlled clinical trial / FDA 2005
SMILES,improvement on all endpoints versus placebo (patients with HA),incidence of gastrointestinal (GI) ulcers visualized at endoscopy compared to certain non-selective NSAIDs [1],risk of serious adverse cardiovascular events compared to placebo [1]
Cc1ccc(-c2ncc(Cl)cc2-c2ccc(S(C)(=O)=O)cc2)cn1 [etoricoxib],clinically and statistically significant improvement,–,–
Cc1onc(-c2ccccc2)c1-c1ccc(S(N)(=O)=O)cc1 [valdecoxib],–,reduction,increased risk
Cc1ccc(-c2cc(C(F)(F)F)nn2-c2ccc(S(N)(=O)=O)cc2)cc1 [celecoxib],–,reduction,increased risk
